Data taken from ChEMBL document CHEMBL1153520, “A multivalent approach to the design and discovery of orally efficacious 5-HT4 receptor agonists” (J Med Chem, 2009).
Activity calls are given as the source filed them. No cut-off for these calls is given here.

Tests used:
[1] = Permeability across human Caco-2 cells assessed as permeability coefficient; type: ADME, cell-based; details: read-out: permeability
Rattus norvegicus [2] = assay: Induction of 5HT4 receptor-mediated relaxation of esophagus in iv dosed anesthetized Sprague-Dawley rat by digital sonomicrometry; type: functional
[3] = Oral bioavailability in Sprague-Dawley rat at 5 mg/kg, po; type: ADME, organism-based; details: in vivo
[4] = Cmax in Sprague-Dawley rat at 5 mg/kg, po; type: ADME, organism-based; set-up: dose 5 mg/kg, route oral; details: in vivo
[5] = AUC (0 to t) in Sprague-Dawley rat at 5 mg/kg, po; type: ADME, organism-based; set-up: dose 5 mg/kg, route oral; details: plasma
[6] = Half life in Sprague-Dawley rat at 5 mg/kg, po; type: ADME, organism-based; set-up: dose 5 mg/kg, route oral; details: in vivo
[7] = Oral bioavailability in human; type: ADME, organism-based; details: in vivo
in vitro = details: rat, liver microsomes
hERG (KCNH2) = hERG (KCNH2) (Homo sapiens, UniProt Q12809); assay: Inhibition of human ERG potassium channel expressed in CHO-K1 cells at 3 uM by whole cell voltage clamp assay; type: cell-based; details: CHO-K1 cells expressing human ERG potassium channel
[8] = biological target: T1, 5-hydroxytryptamine receptor 4 (Homo sapiens, UniProt Q13639); assay: Displacement of [H]GR-113808 from human 5HT4C receptor expressed in HEK293 cells by liquid scintillation counting; type: cell-based
[9] = biological target: T1, 5-hydroxytryptamine receptor 4; assay: Agonist activity at human 5HT4C receptor expressed in HEK293 cells assessed as accumulation of cAMP by flash plate adenylyl cyclase activation assay; type: functional, cell-based
[10] = biological target: T1, 5-hydroxytryptamine receptor 4; assay: Intrinsic activity at human 5HT4C receptor expressed in HEK293 cells assessed as accumulation of cAMP by flash plate adenylyl cyclase activation assay relative to serotonin; type: functional, cell-based
Homo sapiens = species: Homo sapiens; assay: Selectivity ratio of Ki for human 5HT3A receptor to Ki for human 5HT4C receptor
Rattus norvegicus [11] = assay: Induction of 5HT4 receptor-mediated relaxation of esophagus in anesthetized Sprague-Dawley rat at 3 mg/kg, intraduodenally by digital sonomicrometry; type: functional, organism-based; set-up: dose 3 mg/kg
[12] = biological target: 5-hydroxytryptamine receptor 2A (Homo sapiens) (UniProt P28223); assay: Inhibition of 5HT2A receptor at 10 uM
Rattus norvegicus [13] = assay: Induction of 5HT4 receptor-mediated relaxation of esophagus in intraduodenal dosed anesthetized Sprague-Dawley rat by digital sonomicrometry; type: functional, organism-based
[14] = biological target: 5-hydroxytryptamine receptor 1D (Homo sapiens) (UniProt P28221); assay: Inhibition of 5HT1D receptor at 10 uM
[15] = biological target: T2, 5-hydroxytryptamine receptor 1A (Homo sapiens) (UniProt P08908); assay: Inhibition of 5HT1A receptor at 10 uM
T2 sequence (whole entry): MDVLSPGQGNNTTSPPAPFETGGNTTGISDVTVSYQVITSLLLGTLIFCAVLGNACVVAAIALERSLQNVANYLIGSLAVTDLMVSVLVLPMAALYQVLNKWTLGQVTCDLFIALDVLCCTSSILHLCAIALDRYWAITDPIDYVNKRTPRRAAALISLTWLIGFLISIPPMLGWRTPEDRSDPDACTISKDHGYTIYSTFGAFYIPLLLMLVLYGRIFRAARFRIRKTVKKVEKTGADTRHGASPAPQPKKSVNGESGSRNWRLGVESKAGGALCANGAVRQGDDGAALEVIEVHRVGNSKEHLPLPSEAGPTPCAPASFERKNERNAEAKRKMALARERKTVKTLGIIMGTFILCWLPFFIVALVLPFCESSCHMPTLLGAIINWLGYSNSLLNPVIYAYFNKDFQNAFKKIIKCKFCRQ

Cavia porcellus [16] = assay: Increase in colonic transit in Duncan Hartley guinea pig colonic transit model assessed as prokinetic activity at 3 mg/kg, sc relative to vehicle treated control; type: functional, organism-based; set-up: dose 3 mg/kg
[17] = biological target: 5-hydroxytryptamine receptor 2B (Homo sapiens) (UniProt P41595); assay: Inhibition of 5HT2B receptor at 10 uM
[18] = biological target: 5-hydroxytryptamine receptor 5A (Homo sapiens) (UniProt P47898); assay: Inhibition of 5HT5A receptor at 10 uM
Cavia porcellus [19] = assay: Induction of colon longitudinal muscle contraction in sc dosed Duncan Hartley guinea pig; type: functional, organism-based; details: Muscle tissue
[20] = Cmax in Beagle dog at 2 mg/kg, po; type: ADME, organism-based, Canis lupus familiaris; set-up: dose 2 mg/kg, route oral; details: in vivo
[21] = biological target: T3, 5-hydroxytryptamine receptor 2C (Homo sapiens) (UniProt P28335); assay: Inhibition of 5HT2C receptor at 10 uM
T3 sequence (whole entry): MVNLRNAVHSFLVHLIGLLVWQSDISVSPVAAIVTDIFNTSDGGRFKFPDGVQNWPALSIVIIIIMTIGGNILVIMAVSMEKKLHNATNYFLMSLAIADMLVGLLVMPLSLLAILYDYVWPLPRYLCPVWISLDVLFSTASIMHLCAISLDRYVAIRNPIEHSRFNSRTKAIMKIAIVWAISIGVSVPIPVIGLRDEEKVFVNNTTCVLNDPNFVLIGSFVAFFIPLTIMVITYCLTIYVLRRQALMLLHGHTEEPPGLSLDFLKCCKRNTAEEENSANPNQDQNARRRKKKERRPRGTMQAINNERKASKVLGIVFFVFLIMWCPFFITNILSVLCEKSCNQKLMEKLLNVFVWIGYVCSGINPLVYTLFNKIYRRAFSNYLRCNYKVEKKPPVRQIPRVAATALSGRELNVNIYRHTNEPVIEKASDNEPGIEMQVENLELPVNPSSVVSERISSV

[22] = biological target: T3, 5-hydroxytryptamine receptor 2C (Homo sapiens); assay: Inhibition of 5HT1C receptor at 10 uM
[23] = Oral bioavailability in Beagle dog at 2 mg/kg, po; type: ADME, organism-based, Canis lupus familiaris; details: in vivo
[24] = biological target: 5-hydroxytryptamine receptor 6 (Homo sapiens) (UniProt P50406); assay: Inhibition of 5HT6 receptor at 10 uM
[25] = biological target: 5-hydroxytryptamine receptor 7 (Homo sapiens) (UniProt P34969); assay: Inhibition of 5HT7 receptor at 10 uM
5-hydroxytryptamine receptor 7 (Homo sapiens), sequence (P34969 whole entry): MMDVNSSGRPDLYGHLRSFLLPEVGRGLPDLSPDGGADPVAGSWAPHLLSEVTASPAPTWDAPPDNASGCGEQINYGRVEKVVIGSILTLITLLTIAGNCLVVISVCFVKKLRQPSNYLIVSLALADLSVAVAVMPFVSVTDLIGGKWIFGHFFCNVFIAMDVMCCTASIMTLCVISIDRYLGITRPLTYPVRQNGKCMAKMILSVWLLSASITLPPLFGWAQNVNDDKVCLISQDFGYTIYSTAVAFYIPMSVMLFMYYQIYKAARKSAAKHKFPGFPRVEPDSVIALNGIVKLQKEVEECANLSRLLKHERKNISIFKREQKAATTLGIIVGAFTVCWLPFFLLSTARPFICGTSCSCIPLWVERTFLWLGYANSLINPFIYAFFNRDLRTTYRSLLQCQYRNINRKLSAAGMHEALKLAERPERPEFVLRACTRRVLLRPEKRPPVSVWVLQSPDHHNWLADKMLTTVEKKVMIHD

T1 sequence (Q13639 whole entry): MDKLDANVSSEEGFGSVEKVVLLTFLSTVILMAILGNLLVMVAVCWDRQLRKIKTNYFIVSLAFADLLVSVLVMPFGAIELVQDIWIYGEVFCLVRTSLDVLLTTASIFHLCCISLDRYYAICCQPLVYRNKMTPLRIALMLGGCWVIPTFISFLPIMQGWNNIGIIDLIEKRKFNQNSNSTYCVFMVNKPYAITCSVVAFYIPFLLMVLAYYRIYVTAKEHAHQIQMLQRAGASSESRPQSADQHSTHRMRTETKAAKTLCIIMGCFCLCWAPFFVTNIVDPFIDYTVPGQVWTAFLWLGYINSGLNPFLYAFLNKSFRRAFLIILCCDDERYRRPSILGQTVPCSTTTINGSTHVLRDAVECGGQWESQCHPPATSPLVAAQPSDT
hERG (KCNH2), sequence (Q12809 whole entry): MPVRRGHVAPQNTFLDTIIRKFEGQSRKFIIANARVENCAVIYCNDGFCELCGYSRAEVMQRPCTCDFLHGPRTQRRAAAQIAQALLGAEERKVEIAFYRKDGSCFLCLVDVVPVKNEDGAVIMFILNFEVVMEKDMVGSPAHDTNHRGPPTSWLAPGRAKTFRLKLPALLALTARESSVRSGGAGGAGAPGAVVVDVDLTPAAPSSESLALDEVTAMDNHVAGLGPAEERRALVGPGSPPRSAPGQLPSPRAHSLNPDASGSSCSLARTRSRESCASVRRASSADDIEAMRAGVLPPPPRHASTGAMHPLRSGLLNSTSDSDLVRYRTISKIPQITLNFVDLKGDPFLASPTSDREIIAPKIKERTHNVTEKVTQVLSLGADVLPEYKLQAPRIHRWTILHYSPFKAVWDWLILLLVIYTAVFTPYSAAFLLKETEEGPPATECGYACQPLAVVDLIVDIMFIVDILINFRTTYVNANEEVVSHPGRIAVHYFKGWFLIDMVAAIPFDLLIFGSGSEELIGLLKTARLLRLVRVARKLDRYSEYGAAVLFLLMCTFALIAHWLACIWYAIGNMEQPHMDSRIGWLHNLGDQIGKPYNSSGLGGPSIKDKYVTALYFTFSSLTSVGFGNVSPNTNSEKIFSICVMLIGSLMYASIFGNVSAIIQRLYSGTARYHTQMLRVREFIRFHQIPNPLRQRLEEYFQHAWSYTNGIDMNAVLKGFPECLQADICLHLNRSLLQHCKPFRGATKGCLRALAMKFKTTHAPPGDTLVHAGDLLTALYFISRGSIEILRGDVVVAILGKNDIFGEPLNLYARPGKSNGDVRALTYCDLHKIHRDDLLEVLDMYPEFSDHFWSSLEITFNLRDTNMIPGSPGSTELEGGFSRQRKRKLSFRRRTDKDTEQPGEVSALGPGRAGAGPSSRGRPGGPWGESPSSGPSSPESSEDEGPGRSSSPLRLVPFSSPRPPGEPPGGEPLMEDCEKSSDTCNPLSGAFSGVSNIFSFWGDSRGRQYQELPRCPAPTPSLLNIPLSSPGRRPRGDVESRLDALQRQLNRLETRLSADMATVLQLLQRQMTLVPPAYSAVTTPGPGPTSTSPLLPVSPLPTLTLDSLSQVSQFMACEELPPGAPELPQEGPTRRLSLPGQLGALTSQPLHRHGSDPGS
5-hydroxytryptamine receptor 6 (Homo sapiens), sequence (P50406 whole entry): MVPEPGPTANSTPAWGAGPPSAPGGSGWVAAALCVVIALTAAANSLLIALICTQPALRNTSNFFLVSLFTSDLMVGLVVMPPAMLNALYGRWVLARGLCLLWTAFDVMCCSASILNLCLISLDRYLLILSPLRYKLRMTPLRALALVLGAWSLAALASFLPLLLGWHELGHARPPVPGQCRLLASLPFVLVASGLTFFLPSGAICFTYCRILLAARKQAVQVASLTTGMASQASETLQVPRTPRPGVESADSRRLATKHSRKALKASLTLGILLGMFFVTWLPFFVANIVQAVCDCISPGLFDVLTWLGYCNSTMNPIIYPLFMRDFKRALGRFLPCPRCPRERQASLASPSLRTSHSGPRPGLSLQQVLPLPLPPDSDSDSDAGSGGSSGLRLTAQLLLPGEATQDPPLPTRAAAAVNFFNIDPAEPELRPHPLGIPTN
5-hydroxytryptamine receptor 1D (Homo sapiens), sequence (P28221 whole entry): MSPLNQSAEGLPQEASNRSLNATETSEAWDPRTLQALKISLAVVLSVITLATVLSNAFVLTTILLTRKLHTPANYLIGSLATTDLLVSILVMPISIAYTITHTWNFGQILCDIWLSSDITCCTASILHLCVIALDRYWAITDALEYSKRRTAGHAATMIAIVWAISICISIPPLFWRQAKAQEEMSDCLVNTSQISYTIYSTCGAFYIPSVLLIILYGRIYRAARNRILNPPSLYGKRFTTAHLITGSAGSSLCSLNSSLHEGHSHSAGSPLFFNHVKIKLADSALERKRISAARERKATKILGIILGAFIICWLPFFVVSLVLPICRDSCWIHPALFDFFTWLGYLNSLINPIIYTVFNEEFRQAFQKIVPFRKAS
5-hydroxytryptamine receptor 2A (Homo sapiens), sequence (P28223 whole entry): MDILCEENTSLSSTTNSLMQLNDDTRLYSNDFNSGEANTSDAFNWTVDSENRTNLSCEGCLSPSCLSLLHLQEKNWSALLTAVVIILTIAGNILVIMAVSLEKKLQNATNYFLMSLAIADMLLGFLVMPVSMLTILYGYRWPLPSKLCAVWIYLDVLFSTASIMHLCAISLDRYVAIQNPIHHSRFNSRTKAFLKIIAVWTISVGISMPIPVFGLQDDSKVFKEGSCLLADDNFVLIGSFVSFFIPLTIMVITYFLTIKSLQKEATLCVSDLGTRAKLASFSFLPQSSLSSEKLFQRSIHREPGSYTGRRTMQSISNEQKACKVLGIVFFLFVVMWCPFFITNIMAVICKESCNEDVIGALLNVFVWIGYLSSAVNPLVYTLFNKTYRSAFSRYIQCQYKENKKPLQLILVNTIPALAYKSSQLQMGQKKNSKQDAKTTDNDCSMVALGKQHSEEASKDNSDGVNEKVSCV
5-hydroxytryptamine receptor 5A (Homo sapiens), sequence (P47898 whole entry): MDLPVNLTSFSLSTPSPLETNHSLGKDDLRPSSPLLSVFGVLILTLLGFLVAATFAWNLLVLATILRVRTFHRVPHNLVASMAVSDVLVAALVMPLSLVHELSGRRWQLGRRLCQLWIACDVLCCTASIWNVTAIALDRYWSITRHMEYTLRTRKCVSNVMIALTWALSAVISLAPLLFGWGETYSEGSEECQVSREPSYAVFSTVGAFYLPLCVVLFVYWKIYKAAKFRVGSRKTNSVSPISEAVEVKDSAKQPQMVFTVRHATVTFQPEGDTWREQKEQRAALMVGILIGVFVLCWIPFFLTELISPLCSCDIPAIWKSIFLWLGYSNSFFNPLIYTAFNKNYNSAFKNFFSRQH
5-hydroxytryptamine receptor 2B (Homo sapiens), sequence (P41595 whole entry): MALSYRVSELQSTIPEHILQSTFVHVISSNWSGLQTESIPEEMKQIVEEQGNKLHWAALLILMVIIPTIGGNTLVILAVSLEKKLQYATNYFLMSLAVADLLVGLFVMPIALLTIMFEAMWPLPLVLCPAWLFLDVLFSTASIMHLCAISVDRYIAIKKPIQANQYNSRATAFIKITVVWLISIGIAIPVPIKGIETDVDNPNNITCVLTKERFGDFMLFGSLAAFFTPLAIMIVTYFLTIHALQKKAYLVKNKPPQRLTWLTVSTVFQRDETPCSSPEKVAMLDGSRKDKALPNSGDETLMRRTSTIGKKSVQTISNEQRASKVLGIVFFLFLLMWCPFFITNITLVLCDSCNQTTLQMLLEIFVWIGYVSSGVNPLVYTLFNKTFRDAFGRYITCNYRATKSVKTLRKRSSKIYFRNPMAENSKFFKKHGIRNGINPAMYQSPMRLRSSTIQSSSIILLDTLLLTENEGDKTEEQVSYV

Compound: CCCCCNC(=N)N/N=C/c1c[nH]c2ccc(OC)cc12 [TEGASEROD]
- Papp [1]: 11 ×10⁻⁶ cm/s
- ED50 (Rattus norvegicus [2]): 0.0106 mg/kg
- bioavailability [3]: 5%
- Cmax [4]: 6 ng/mL
- AUC(0-t) [5]: 21 ng·h/mL
- half-life [6]: 1.8 h
- bioavailability [7]: 10%
- half-life (in vitro): > 1.5 h

Compound: CC(C)n1c(=O)c(C(=O)N[C@H]2C[C@H]3CC[C@@H](C2)N3CCCN2CCN(S(C)(=O)=O)CC2)cc2ccccc21
- inhibition at 3 µM (hERG (KCNH2)): 38%
- Papp [1]: 20 ×10⁻⁶ cm/s
- Ki [8]: 39.8 nM
- EC50 [9]: 1.58 nM
- Intrinsic activity [10]: > 100%
- bioavailability [3]: 38%
- Cmax [4]: 34 ng/mL
- AUC(0-t) [5]: 183 ng·h/mL
- half-life [6]: 7.9 h
- Ratio Ki (Homo sapiens): 2300
- half-life (in vitro): 0.683 h

Compound: CC(C)n1c(=O)c(C(=O)N[C@H]2C[C@H]3CC[C@@H](C2)N3C[C@@H](O)CN2CCN(S(C)(=O)=O)CC2)cc2ccccc21
- inhibition at 3 µM (hERG (KCNH2)): 4%
- Papp [1]: 14 ×10⁻⁶ cm/s
- Ki [8]: 12.6 nM
- Activity (Rattus norvegicus [11]): Active
- inhibition [12]: < 50%
- Activity (Rattus norvegicus [13]): Dose-dependent effect
- inhibition [14]: < 50%
- EC50 [9]: 0.398 nM
- inhibition [15]: < 50%
- Intrinsic activity [10]: 94%
- Activity (Cavia porcellus [16]): Active
- Activity (Rattus norvegicus [2]): Dose-dependent effect
- ED50 (Rattus norvegicus [2]): 0.016 mg/kg
- inhibition [17]: < 50%
- inhibition [18]: < 50%
- EC50 (Cavia porcellus [19]): 2.51 nM
- Cmax [20]: 320 ng/mL
- bioavailability [3]: 20%
- inhibition [21]: < 50%
- Cmax [4]: 31 ng/mL
- AUC(0-t) [5]: 200 ng·h/mL
- half-life [6]: 5.2 h
- inhibition [22]: < 50%
- bioavailability [23]: 63%
- Ratio Ki (Homo sapiens): 7400
- half-life (in vitro): > 1.5 h
- inhibition [24]: < 50%
- inhibition [25]: < 50%
